Source: article PMC11310889, “Ribosomal translation of fluorinated non-canonical amino acids for de novo biologically active fluorinated macrocyclic peptides” (Chemical Science, 2024)
Where a SMILES comes first, the peptide text is derived from it. Bridges are numbered along the chain shown (N, C = ends). [ ]: non-standard residue; d: D form. Phe(3,4-F2) = N[C@@H](Cc1ccc(F)c(F)c1)C(=O)O; dPhe(4-F) = N[C@H](Cc1ccc(F)cc1)C(=O)O

Legend:
[1] = system: T1, BAM complex; experiment: SPR binding kinetics to BAM complex; design: species or system E. coli; conditions: Biacore T200, 25 °C, multi-cycle kinetics, 1:1 model
T1 construct: made in house; host or cells: E. coli BL21(DE3), strain obtained from Xinmiao Fu, Fujian Normal University
Description: Expression and purification of the BAM complex
The E. coli BL21(DE3) cells containing all five Bam proteins (BamA, B, C, D, and E) was obtained from Xinmiao Fu of Fujian Normal University and used for expression and purification.
The BL21(DE3) cells plated onto LB-ampicillin agar plates and incubated overnight at 37 °C. A 20 mL culture incubated overnight at 37°C was prepared from a single colony in LB medium supplemented with 100 mg/L of ampicillin. The strain was inoculated into fresh LB liquid medium according to the inoculation ratio of 1:100 and incubated at 37 ℃ for about 4 hours until the OD600 reached about 1.0. The temperature of the incubator was set to 20 ℃ and then cultured for 1 hour, and 200 uM IPTG was added to induce overnight. First of all, the induced cells were collected by freezing centrifuge 3000 rpm for 30 min, and the collected cells were resuspended with Buffer 1 (20 mM Tris-HCl, pH 8.0, 150 mM NaCl), and then crushed low temperature and pressure with a high pressure crusher. The broken cells were centrifuged 1 hour at 4 °C for18000 rpm by high speed centrifuge. After centrifugation at 4 °C 18000 rpm for 1 hour, and the supernatant was discarded and the cell membrane was collected. The collected cell membranes were resuscitated with Buffer 2 (20 mM Tris-HCl, pH 8.0, 300 mM NaCl, 1% DDM) and then dissolved at 4 °C for 2 hours. After dissolving the membrane, the supernatant was collected by high speed centrifuge at 18,000 rpm. The 20 mM imidazole was added to the supernatant and incubated with a 2 mL Ni-NTA sefinoseTM resin column for 1 hour. After incubation, 10 column volumes were washed with Buffer 3 (20 mM Tris-HCl, pH 8.0, 300 mM NaCl, 0.025%DDM) containing 30 mM and 50 mM imidazole respectively. Then, the protein was eluted with Buffer 3 containing 200 mM imidazole, and the eluted protein was collected. Finally, using the 20-fold molar excess of EZ-LinkTM Sulfo-NHS-LC-LC-Biotin for BAM complex, and incubate reaction on ice for 2 hours. After the protein labeling is completed, dialysis is used to purify the labeled protein to remove the remaining unreacted and hydrolyzed biotin reagents. […]
The mobile phase was 0.1% TFA aqueous solution / acetonitrile containing 0.1%
TFA. The purified macrocyclic peptides and fluorinated macrocyclic peptides were confirmed by electrospray ionization mass spectrometry (ESI-MS).
Binding kinetics analysis by SPR
The binding kinetics between the selected peptides and EphA2 were tested by SPR using a Biacore T200 instrument (GE Healthcare) at 25 °C. In this study, the running buffer was HBS-EP+ buffer (10 mM HEPES-KOH (pH 7.4), 150 mM NaCl, 50 μM EDTA, 0.05% Tween 20) containing 0.1% DMSO. Biotin capture kit (GE Healthcare) was used to fix human EphA2 on the surface of Biacore CAP chip with a density of 1050 RU. Five different concentrations of peptides were injected at the flow rate of 30 μL/min, and their kinetic constants were determined. The binding kinetic was quantified by single cycle kinetic method. Finally, the binding sensorgrams was analyzed by Biacore evaluation software, and the standard 1:1 model was used for fitting.
The binding kinetics between the selected peptides and BAM complex were tested by SPR using […]
a Biacore T200 instrument (GE Healthcare) at 25 °C. In this study, the running buffer was HBS-EP+ […]
0.1% DMSO. The Series S Sensor Chip CM5 was used to fix BAM complex on the surface of Biacore CM5 chip with a density of 9500 RU. The binding mode was multi-cycle kinetics (one sample concentration one cycle). Finally, the binding sensorgrams was analyzed by Biacore evaluation software, and the standard 1:1 model was used for fitting.
Preliminary evaluation of the antibacterial activity of macrocyclic peptides against E. coli […]
Remove the previously preserved E. coli W3110 cells from the -80 °C refrigerator, scrape a little, inoculate it into 1 mL LB liquid medium, and culture overnight in 37°C shaker. The strain was […]

[2] = molecular target: human EphA2 (Homo sapiens, UniProt P29317); experiment: SPR binding kinetics to EphA2; conditions: Biacore T200, 25 °C, HBS-EP+ buffer pH 7.4 with 0.1% DMSO, biotinylated human EphA2 on CAP chip (1050 RU), single cycle kinetics, five concentrations, 1:1 model
Description: The cDNAs was detected by QuantStudio™ real-time PCR system (Applied Biosystems), then PCR was recovered by phusion® high-fidelity DNA polymerase and transcribed in vitro to construct a mRNA library rich in BAM complex(or EphA2) binding sequences to prepare for the next round of screening. Starting with the second round of screening, six more negative selections were added before positive selections to remove unwanted beads binders. Finally, the cDNAs recovered in the sixth(or fifth) round was deep sequencing using NovaSeq 6000 system (Ilumina).
General procedures for solid-phase synthesis of selected peptides
In this study, macrocyclic peptides and fluorinated macrocyclic peptides were synthesized by standard Fmoc solid phase peptide synthesis (SPPS). Firstly, a mixture (0.3 mmol Fmoc-Gly-OH and 0.3 mmol HOBT dissolved in 8 mL DMF and 0.5 mL DIC) was prepared, and 0.5 g Rink Amide MBHA resin was added to the mixture, and then reacted under nitrogen protection for 1.5 h. The resin was filtered and washed at least three times with DMF and DCM, and a deprotective agent (DMF solution containing 20% piperidine) was added to remove the Fmoc protective group. Then a new mixture (0.9 mmol Fmoc-AA-OH and 0.9 mmol HOBT dissolved in 10 mL DMF and 1 mL DIC) was prepared and condensation reaction was carried out under nitrogen protection for 1 hour.
By repeating the steps of deprotection and condensation reaction, the desired peptide was finally obtained, and the bromoacetyl group was connected to the N-terminal free α-amino group of the resin peptide. […]
The binding kinetics between the selected peptides and EphA2 were tested by SPR using a Biacore T200 instrument (GE Healthcare) at 25 °C. […] Five different concentrations of peptides were injected at the flow rate of 30 μL/min, and their kinetic constants were determined. The binding kinetic was quantified by single cycle kinetic method. Finally, the binding sensorgrams was analyzed by Biacore evaluation software, and the standard 1:1 model was used for fitting. […]

Sequence of human EphA2 (P29317 24-976): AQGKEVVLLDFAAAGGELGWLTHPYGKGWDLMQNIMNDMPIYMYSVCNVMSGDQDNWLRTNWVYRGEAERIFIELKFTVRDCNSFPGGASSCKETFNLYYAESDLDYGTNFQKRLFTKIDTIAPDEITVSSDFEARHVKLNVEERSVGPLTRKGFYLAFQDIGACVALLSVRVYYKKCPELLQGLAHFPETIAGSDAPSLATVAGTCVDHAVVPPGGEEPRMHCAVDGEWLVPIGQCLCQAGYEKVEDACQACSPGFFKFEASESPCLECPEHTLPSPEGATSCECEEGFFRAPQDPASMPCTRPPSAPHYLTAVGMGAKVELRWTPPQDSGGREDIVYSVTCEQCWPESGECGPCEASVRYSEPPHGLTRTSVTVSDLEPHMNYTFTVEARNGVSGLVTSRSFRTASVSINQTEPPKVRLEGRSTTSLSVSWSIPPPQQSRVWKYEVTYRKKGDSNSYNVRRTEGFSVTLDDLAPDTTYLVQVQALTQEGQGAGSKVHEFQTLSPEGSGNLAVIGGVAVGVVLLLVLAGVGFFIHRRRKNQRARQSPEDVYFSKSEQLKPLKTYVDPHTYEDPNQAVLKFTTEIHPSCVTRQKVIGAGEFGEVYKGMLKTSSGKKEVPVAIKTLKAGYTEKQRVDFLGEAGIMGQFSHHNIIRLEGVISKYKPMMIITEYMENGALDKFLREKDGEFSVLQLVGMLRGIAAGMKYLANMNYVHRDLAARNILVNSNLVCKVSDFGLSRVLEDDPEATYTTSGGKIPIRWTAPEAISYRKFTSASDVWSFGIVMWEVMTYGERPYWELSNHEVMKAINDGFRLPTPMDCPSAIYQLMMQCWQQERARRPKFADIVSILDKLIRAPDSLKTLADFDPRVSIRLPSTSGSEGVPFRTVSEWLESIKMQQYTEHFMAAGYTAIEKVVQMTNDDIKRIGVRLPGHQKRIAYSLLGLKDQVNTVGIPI
T1 sequence (P0A903 25-344): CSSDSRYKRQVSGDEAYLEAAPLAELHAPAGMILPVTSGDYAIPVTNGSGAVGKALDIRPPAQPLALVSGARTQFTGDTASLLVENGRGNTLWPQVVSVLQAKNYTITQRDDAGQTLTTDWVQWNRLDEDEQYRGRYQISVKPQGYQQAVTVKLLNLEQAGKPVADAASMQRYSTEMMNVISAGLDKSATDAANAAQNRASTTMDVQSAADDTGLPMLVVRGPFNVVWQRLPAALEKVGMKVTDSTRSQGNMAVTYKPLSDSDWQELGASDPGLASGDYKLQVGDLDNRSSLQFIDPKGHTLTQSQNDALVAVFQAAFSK
T1 sequence (P0AC02 20-245, further chain): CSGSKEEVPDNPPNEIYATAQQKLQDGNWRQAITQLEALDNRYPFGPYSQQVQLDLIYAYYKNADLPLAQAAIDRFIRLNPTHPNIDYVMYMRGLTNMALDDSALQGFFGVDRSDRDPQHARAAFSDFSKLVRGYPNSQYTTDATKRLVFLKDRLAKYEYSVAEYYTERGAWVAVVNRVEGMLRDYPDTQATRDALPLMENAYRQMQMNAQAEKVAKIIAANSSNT
T1 sequence (P0A937 20-113, further chain): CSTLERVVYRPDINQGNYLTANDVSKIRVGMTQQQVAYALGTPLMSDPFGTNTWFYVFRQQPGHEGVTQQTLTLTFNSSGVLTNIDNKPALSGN
T1 sequence (P77774 20-392, further chain): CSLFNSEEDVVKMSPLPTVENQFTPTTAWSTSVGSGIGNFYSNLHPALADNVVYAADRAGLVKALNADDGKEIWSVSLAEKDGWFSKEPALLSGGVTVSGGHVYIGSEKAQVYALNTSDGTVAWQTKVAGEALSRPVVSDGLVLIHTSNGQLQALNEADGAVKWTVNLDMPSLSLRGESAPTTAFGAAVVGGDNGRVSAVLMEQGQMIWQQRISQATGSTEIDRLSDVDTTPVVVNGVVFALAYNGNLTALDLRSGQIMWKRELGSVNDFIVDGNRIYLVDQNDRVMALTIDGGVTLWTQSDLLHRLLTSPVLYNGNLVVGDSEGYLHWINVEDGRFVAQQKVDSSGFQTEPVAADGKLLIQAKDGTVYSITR

Compound | ka for BAM complex ([1]; CM5 chip) | Kd ([1]; HBS-EP+ buffer pH 7.4 with 0.1% DMSO, BAM complex on CM5 chip (9500 RU)) [nM] | Kd [2] [nM]
CC[C@H](C)[C@@H]1NC(=O)[C@H](CC(C)C)NC(=O)[C@@H](Cc2ccc(O)cc2)NC(=O)CSC[C@@H](C(=O)NCC(N)=O)NC(=O)[C@H](C(C)C)NC(=O)[C@H](CCCNC(=N)N)NC(=O)[C@H](Cc2ccccc2)NC(=O)[C@@H]2CCCN2C(=O)[C@H](Cc2c[nH]cn2)NC(=O)[C@H](CO)NC(=O)[C@H](CCCNC(=N)N)NC(=O)[C@H](CO)NC(=O)[C@H](Cc2ccc(O)cc2)NC(=O)[C@H](Cc2c[nH]c3ccccc23)NC1=O [BAM-D1] ({CH2CO}-[dY]LIWYSRSHPFRVCG-NH2; thioether N-14) | 0.43 ×10 4 M-1s-1 | 763 | –
CC[C@H](C)[C@@H]1NC(=O)[C@@H](Cc2ccc(F)cc2)NC(=O)CSC[C@@H](C(=O)NCC(N)=O)NC(=O)[C@H](Cc2ccc(O)cc2)NC(=O)[C@H](CCCNC(=N)N)NC(=O)[C@H](CCC(N)=O)NC(=O)[C@H]([C@@H](C)O)NC(=O)[C@H]([C@@H](C)O)NC(=O)[C@H](Cc2ccc(F)c(F)c2)NC(=O)[C@H](CCCCN)NC(=O)[C@H](CC(C)C)NC(=O)[C@H](C)NC(=O)[C@H](Cc2ccc(O)cc2)NC(=O)[C@H](Cc2c[nH]c3ccccc23)NC1=O [Ep-F1] ({CH2CO}-[dPhe(4-F)]IWYALK[Phe(3,4-F2)]TTQRYCG-NH2; thioether N-14) | – | – | 9.9
CC(C)C[C@@H]1NC(=O)[C@@H]2CCCN2C(=O)[C@H](Cc2c[nH]cn2)NC(=O)[C@@H](Cc2ccc(F)cc2)NC(=O)CSC[C@@H](C(=O)N[C@@H](Cc2c[nH]c3ccccc23)C(=O)N[C@H](C(=O)N[C@@H](CCCCN)C(=O)N[C@@H](CO)C(=O)NCC(N)=O)[C@@H](C)O)NC(=O)CNC(=O)[C@H](Cc2ccc(F)c(F)c2)NC(=O)[C@H](CC(N)=O)NC(=O)[C@H](Cc2ccc(O)cc2)NC1=O [Ep-F2] ({CH2CO}-[dPhe(4-F)]HPLYN[Phe(3,4-F2)]GCWTKSG-NH2; thioether N-9) | – | – | 0.25
Ep-F2-M2: variant of Ep-F2 measured by SPR (Fig. S4) to examine the role of fluorination (FHPLYNFGCWTKSG; Parent Ep-F2 is printed as Ac-(4-F-DPhe)HPLYN(2F-LPhe)GCWTKSG-NH2) | – | – | 0.29
